In US6602914B2, “Compounds and methods for the inhibition of the expression of VCAM-1” (AtheroGenics, Inc., priority 1997, dated 2003):

How the values were obtained:
[1] = system: VCAM-1; experiment: VCAM-1 Assay: TNF-stimulated cells, cell-surface ELISA; format: cell-based; conditions: for IC50: bare number = IC50, NE not defined in the patent, read-out: VCAM-1 IC50 or % inhibition at [μM]: IC50; for VCAM-1 % inhibition at [μM]: at 50 μM
Method: Two to four confluent P150 plates are trypsinized and the cells transferred to a 50 mL conical centrifuge tube. The cells are pelleted, resuspended, and counted using the trypan blue exclusion method.
Cells are resuspended at a concentration of 36,000 cells/mL and 1 mL is aliquoted per well.
Cells are split into 24 well tissue culture plates. The cells in each well should be approximately 90-95% confluent by the following day. Cells should not be older than passage 8.
Compounds are initially screened at 50 μM and 10 μM. A 50 mM stock solution for each compound is prepared in culture medium. The stock solution is diluted to 5 mM and 1 mM. When 10 μL of the 5 mM solution is added to the well (1 mL medium/well), the final concentration will be 50 μM. Adding 10 μL of the 1 mM solution to the well will give a final concentration of 10 μM.
Compounds which will not go into solution in culture medium are resuspended in DMSO at a concentration of 25 mM. The stock solution is then diluted to the final concentration in culture medium. The old medium is aspirated and 1 mL of the new medium with the compound is added. For example, if the final concentration is 50 μM, the 2 μL of the 25 mM stock is added per mL of culture medium. The […] solution is diluted for lower concentrations.
The compounds are added to the plate (each compound is done in duplicate). One plate is done for VCAM expression and one plate is done for ICAM expression.
Immediately after the compounds are added, TNF is added to each well. 100 units/mL TNF is usually added to each well. Since each lot of TNF varies in the number of units, each new lot is titrated to determine the optimum concentration. Therefore this concentration will change. If 100 units/mL is bing used, dilute the TNF to 10 units/μL and add 10 μL to each well.
The plates are incubated at 37° C., 5% CO2 overnight (approximately 16 hours). The next day the plates are checked under the microscope to see if there are any visual signs of toxicity. Records are made of any cell death, debris, or morphology changes, as well as insoluble compounds (particulate or turbity).
In order to assess MCP-1, the media (500 μL) is saved and frozen at −70° C. Wash cells once with roughly 1 ml/well of Hanks Balance Salt Solution (HBSS) or PBS. Gently empty the wash solution and then tap the plate onto paper towels. Add either 250 μL/well of HBSS +5% FCCS to the plank (no primary antibody wells) or 250 μL/well of primary antibody diluted in HBSS +5% FCS. Incubate for 30 minutes at 37° C. Wash the wells twice with 0.5 mL/well HBSS or PBS and gently tap the plates onto paper towels after the last wash. Add 250 μL/well of HRP-conjugated second antibody diluted in HBSS +5% FCS to every well including the blank wells (no primary antibody). Incubate at 37° C. for 30 minutes. Wash the wells four times with 0.5 mL/well HBSS or PBS and gently tap the plates onto paper towels after the last wash. Add 250 μL/well of substrate solution. Incubate at room temperature in the dark until there is adequate color development (blue). Note the length of time incubation was performed (typically 15-30 minutes). Add 75 μL/well stopper solution (8N sulfuric acid), and read A450 nm.

[2] = system: ApoB/HepG2; experiment: Lipid Screen & IC50 Determination Protocol: ApoB ELISA of HEPG2 media; format: cell-based, human; conditions: HEPG2, 24 hours; for IC50: bare number = IC50, NE not defined in the patent, read-out: ApoB/HepG2 IC50 or % inhibition at [μM]: IC50
Method: HEPG2 cell was started in 10 ml of MEM, 10% FBS, 1 mM Sodium Pyruvate. The cells were incubated in a tissue culture incubator. The cells were split into 4×96-wells plate in MEM, 10% FBS, 1 mM Sodium Pyruvate and allowed to grow to about 50% confluency and then removed.
The cells were treated with the desired concentration of compounds in 100 μl DMEM, 1% RSA for 24 hours. The compounds are dissolved in DMSO.
On the same day, 4×96-wells NuncImmunoSorb plate is coated with 100 μl of mouse anti-human ApoB monoclonal 1D1 (1:1000 dilution in 1×PBS, pH 7.4). The coating is allowed overnight.
The coated plate is washed 3 times with 1×PBS, pH 7.4, −0.05% Tween 20. 100 μl of the standards is added to the selected wells. ApoB standards are prepared at 6.25, 3.12, 1.56, 0.78, 0.39 ng, and each concentration is done in triplicates. For samples:
90 μl of 1×PBS, pH 7.4, −0.05% Tween 20 is added to each well corresponding to the sample. 10 μl of media is transferred from the treated HEPG2 plates to the ApoB ELISA plate. The plate is incubated at room temperature for 2 hours, rocking gently.
Wash the coated plate 3× with 1×PBS, pH 7.4, −0.05% Tween 20. Add 100 μl of sheep anti-human ApoB polyclonal from Boehringer Mannheim. (1:2000 dilution in 1×PBS, pH 7.4, −0.05% Tween 20) from Boehringer Mannheim. Incubate at room temperature for 1 hour, rocking gently. Wash the coated plate 3× with 1×PBS, pH 7.4, −0.05% Tween 20. Add 100 μl of rabbit anti-sheep IgG (1:2000 dilution in 1×PBS, pH 7.4, −0.05% Tween 20). Incubate at room temperature for 1 hour, rocking gently. Wash the coated plate 3× with 1×PBS, pH 7.4, −0.05% Tween 20. Add 100 μl of substrate (10 ml of distilled water, 100 μl of TMB (10 mg/ml), and 1 μl of hydrogen peroxide). Allow color to emerge and stop reaction with 25 ul of 8N sulfuric acid. Wells are read with MicroPlate Reader @ […]. Graph accumulation of ApoB in media as a percentage of control for each sample and their concentration. A determination of IC50 is obtained from the graph.
The degree of inhibition of the compounds of formulas (I) and (II) was determined by the assays described in Examples 62-64.

Compound | IC50 [1] | other results
2,6-di-tert-butyl-4-thio(3′,5′-ditert-butyl,4′-hydroxy butanedioic acid ester)phenol | 6 µM | –
CC(C)(C)c1cc(S(=O)(=O)Cc2ccc([N+](=O)[O-])cc2)cc(C(C)(C)C)c1O [2,6-di-tert-butyl4-(sulfonyl-(4′-nitrobenzyl))phenol] | 40 µM | IC50 [2]: 25 µM
CC(C)(C)c1cc(SCc2ccc([N+](=O)[O-])cc2[N+](=O)[O-])cc(C(C)(C)C)c1O [2,6-di-tert-butyl4-thio(2′,4′-dinitrobenzyl)phenol] | 8 µM | IC50 [2]: 32 µM
CC(C)(C)c1cc(SCc2ccc([N+](=O)[O-])cc2)cc(C(C)(C)C)c1O [2,6-di-tert-butyl4-thio(4′-nitrobenzyl)phenol] | 10 µM | IC50 [2]: 27 µM
CC(=O)OC(C)(C)CSc1cc(C(C)(C)C)c(O)c(C(C)(C)C)c1 [2,6-di-tert-butyl-4-thio(2′-acetoxy,2′-methylpropyl)phenol] | 50 µM | –
CN(C)CCCSc1cc(C(C)(C)C)c(O)c(C(C)(C)C)c1 [2,6-di-tert-butyl-4-thio(3′-(dimethylamino)propyl))phenol] | – | VCAM-1 % inhibition at [μM] [1]: 30% at 50
CC(C)(C)c1cc(SCc2cccc([N+](=O)[O-])c2)cc(C(C)(C)C)c1O [2,6-di-tert-butyl-4-thio(3′-nitrobenzyl)phenol] | 13 µM | IC50 [2]: 20 µM
CC(C)(C)c1cc(SCCCS(=O)(=O)O)cc(C(C)(C)C)c1O [2,6-di-tert-butyl-4-thio(3′-propanesulfonic acid)phenol] | – | VCAM-1 % inhibition at [μM] [1]: 25% at 50
CC(C)(C)c1cc(SCc2ccc(CC(=O)O)cc2)cc(C(C)(C)C)c1O [2,6-di-tert-butyl-4-thio(4′(methyl)phenylacetic acid))phenol] | 80 µM | ApoB/HepG2 % inhibition at [μM] ([2]; at 15 μM): 7% at 15
CC(C)(C)c1cc(SCc2ccc(CCO)cc2)cc(C(C)(C)C)c1O [2,6-di-tert-butyl-4-thio(4′-(methyl)phenylethyl alcohol))phenol] | 15 µM | ApoB/HepG2 % inhibition at [μM] ([2]; at 15 μM): 53% at 15
CC(=O)Oc1ccc(CSc2cc(C(C)(C)C)c(O)c(C(C)(C)C)c2)cc1 [2,6-di-tert-butyl-4-thio(4′-acetoxybenzyl)phenol] | 18 µM | IC50 [2]: 40 µM
CC(C)(C)c1cc(SCc2ccc(F)cc2)cc(C(C)(C)C)c1O [2,6-di-tert-butyl-4-thio(4′-fluorobenzyl)phenol] | 35 µM | IC50 [2]: 30 µM
CC(C)(C)c1cc(SCCc2ccc([N+](=O)[O-])cc2)cc(C(C)(C)C)c1O [2,6-di-tert-butyl-4-thio(4′-nitrophenethyl)phenol] | 15 µM | –
CC(C)(C)c1cc(SCCCC(=O)O)cc(C(C)(C)C)c1O [2,6-di-tert-butyl-4-thio(butanoic acid)phenol] | 75 µM | –
CC(C)(C)c1cc(SCc2ccc(C(=O)O)o2)cc(C(C)(C)C)c1O [2,6-di-tert-butyn4-thio((2′-furancarboxylic acid)-5-methyl)phenol] | 40 µM | –
CC(C)(Sc1cc(C(C)(C)C)c(O)c(C(C)(C)C)c1)Sc1cc(C(C)(C)C)c(OC(=O)CN)c(C(C)(C)C)c1 [Glycine, 4-[[1-[[3,5-bis(1,1-dimethylethyl)-4-hydroxyphenyl]thio]-1-methylethyl]thio]-2,6-bis(1,1-dimethylethyl)phenyl ester] | – | inhibition at 5 µM ([2]; Homo sapiens, at 5 μM): 30%
CC(C)(Sc1cc(C(C)(C)C)c(O)c(C(C)(C)C)c1)Sc1cc(C(C)(C)C)c(OCC(O)CNCC(=O)O)c(C(C)(C)C)c1 (stereo not shown) [Glycine, N-[3-[4-[[1-[(3,5-bis(1,1-dimethylethyl)-4-hydroxyphenyl]thio]-1-methylethyl]thio]-2,6-bis(1,1-dimethylethyl)phenoxy]2-hydroxypropyl]-] | – | inhibition at 15 µM ([2]; Homo sapiens, at 15 μM): 45%
CC(C)(Sc1cc(C(C)(C)C)c(O)c(C(C)(C)C)c1)Sc1cc(C(C)(C)C)c(OCC(=O)NCC(=O)O)c(C(C)(C)C)c1 [Glycine, N-[[4-[[1-[[3,5-bis(1,1-dimethylethyl)-4-hydroxyphenyl]thio]-1,methylethyl]thio]-2,6-bis(1,1-dimethylethyl)phenoxylacetyl]-] | – | ApoB/HepG2 % inhibition at [μM] ([2]; at 15 μM): 83% at 15
CC(C)(Sc1cc(C(C)(C)C)c(O)c(C(C)(C)C)c1)Sc1cc(C(C)(C)C)c(OC(=O)CCC(=O)O)c(C(C)(C)C)c1.N=C(N)NCCC[C@H](N)C(=O)O [L-Arginine, mono[4-[[1-[[3,5-bis(1,1-dimethylethyl)-4-hydroxyphenyl]thio]-1-methylethyl]thio]-2,6-bis(1,1-dimethylethyl)phenyl butanedioate]] | – | ApoB/HepG2 % inhibition at [μM] ([2]; at 15 μM): 93% at 15
CC(C)(Sc1cc(C(C)(C)C)c(O)c(C(C)(C)C)c1)Sc1cc(C(C)(C)C)c(OCC2OC2CO)c(C(C)(C)C)c1 (stereo not shown) [Oxiranemethanol, 3-[[4-[[1-[[3,5-bis(1,1-dimethylethyl)-4-hydroxyphenyl]thio]-1-methylethyl]thio]-2,6-bis(1,1-dimethylethyl)phenoxy]methyl]-] | > 100 µM | –
CC(C)(Sc1cc(C(C)(C)C)c(O)c(C(C)(C)C)c1)Sc1cc(C(C)(C)C)c(OCC(O)C2CO2)c(C(C)(C)C)c1 (stereo not drawn) [Oxiranemethanol, α-[[4-[[1-[[3,5-bis(1,1-dimethylethyl)-4-hydroxyphenyl]thio]-1-methylethyl]thio]-2,6-bis(1,1-dimethylethyl)phenoxy]methyl]-] | 45 µM | –
CC1(C)OC2OC(COc3c(C(C)(C)C)cc(SC(C)(C)Sc4cc(C(C)(C)C)c(O)c(C(C)(C)C)c4)cc3C(C)(C)C)C3OC(C)(C)OC3C2O1 [α-D-Galactopyranose, 60-[4-[[1-[[3,5-bis(1,1-dimethylethyl)-4-hydroxyphenyl]thio]-1-methylethyl]thio]-2,6-bis(1,1-dimethylethyl)phenyl]-1,2:3,4-bis-O-(1-methylethylidene)] | 45 µM | –
Oxiranemethanol, α-[[[3-[[4-[[1-[[3,5-bis(1,1-dimethylethyl)-4-hydroxyphenyl]thio]-1-methylethyl]thio]-2,6-bis(1,1-dimethylethyl)phenoxy]methyl]oxiranyl]methoxy]methyl]- | 60 µM | –
